According to patent US20260001910A1, “PEPTIDES AND USES THEREOF” (PreveCeutical Medical Inc., priority 2021, published 2026):

Tests used:
Test in all cases: Real time RT-PCR mRNA expression
Type in all cases: cell-based, human
[1] = system: MMP-9 mRNA
Description: (§1) The real-time reverse transcription polymerase chain reaction (RT-PCR) uses fluorescent reporter molecules to monitor the production of amplification products during each cycle of the PCR reaction. This combines the nucleic acid amplification and detection steps into one homogeneous assay and use of appropriate chemistries and data analysis eliminates the need for Southern blotting or DNA sequencing for amplicon identification. Its simplicity, specificity and sensitivity, together with its potential for high throughput and the ongoing introduction of new chemistries, more reliable instrumentation and improved protocols, has made real-time RT-PCR the benchmark technology for the detection and/or comparison of RNA levels.′
(§2) In order to detect and quantify the expression of specific genes at mRNA level, real-time reverse transcriptase polymerase chain reaction (Real time RT-PCR) was performed. Total RNA of samples was isolated and purified using the PureLink® RNA Mini Kit (Life technologies). The concentration of total RNA was detected by NanoDrop 2000 Spectrophotometer (Thermo Scientific). The total RNA (2000 ng) was reverse transcribed using the High-Capacity cDNA Reverse Transcription Kit (Applied Biosystems™).
(§3) The primers of target genes were TaqMan™ Gene Expression Assay for human PLAU (Hs01547054_m1), MMP-2 (Hs01548727_ml), MMP-9 (Hs00957562_m1), Snail-1 (Hs00195591_m1), Snail-2 (Hs00161904_m1), N-cadherin (Hs00983056_m1) and Twist (Hs01675818_s1). Relative quantification was done by reference to 18S ribosomal RNA (18S rRNA) and analysed using the comparative critical threshold (Ct) method
(§4) The mRNA expression of MMPs was measured using qRT-PCR. This was tested three independent times; the results are shown in Tables 8, 9 and 10 for U251, U87 cells and 081024 cells respectively. Results are reported as percent of the control cells (no treatment). SEQ ID NO.

[2] = system: MMP-2 mRNA
Description: as §1, §2, §3, §4

[3] = system: uPA (PLAU) mRNA
Description: as §1, §2, §3, §4

[4] = 081024 cells, baseline expression level = 1
[5] = U87 cells, baseline expression level = 1
[6] = U251 cells, relative to untreated control, 18S rRNA reference

With `CC(C)C[C@@H](NC(=O)[C@@H](Cc1ccccc1)NC(=O)CNC(=O)CNC(=O)[C@H](N)Cc1ccc(O)cc1)C(=O)N[C@H](CCCNC(=N)N)C(=O)N[C@H](CCCNC(=N)N)C(N)=O` [SEQ ID NO. 1, tyr-Gly-Gly-phe-leu-arg-arg-NH2] the “MMP-9 mRNA expression” value [1, 4] was 0.54, the “MMP-9 mRNA expression” value [1, 5] was 0.71 and the “effect on mRNA expression of MMP-9 (in words)” value ([1]; U251, U87 and 081024 cells) was “did not have a statistically significant effect”. The “MMP-9 mRNA expression” value [1, 6] was 1.10, the “MMP-2 mRNA expression” value [2, 4] was 0.72 and the “MMP-2 mRNA expression” value [2, 5] was 0.74. The “effect on mRNA expression of MMP-2 (in words)” value ([2]; U251, U87 and 081024 cells) was “did not have a statistically significant effect”, the “MMP-2 mRNA expression” value [2, 6] was 0.95 and the “uPA mRNA expression” value [3, 4] was 0.67. For the same compound, the “uPA mRNA expression” value [3, 5] was 1.20, the “effect on mRNA expression of uPA (in words)” value ([3]; U251, U87 and 081024 cells) was “did not have a statistically significant effect” and the “uPA mRNA expression” value [3, 6] was 0.82.
